# Experimental data published in US20160375006A1, “USES OF PARALOG-SELECTIVE INHIBITORS OF GSK3 KINASES” (priority 2012, published 2016).
# Where two headings read alike, the source gives them in different places.
# Tests used:
# [1] = target: T1, PLK1 (Homo sapiens, UniProt P53350); assay: Carna kinase panel; assay type: biochemical
# T1 construct: purchased Carna Biosciences
# Method: (§1) This was completed utilizing one of two assays depending on the kinase being examined.
# (§2) A solution of IMAP binding reagent (IMAP Screening Express kit; Molecular Devices) (60 μL) was added to each well and incubated for 30 minutes.
# (§3) A solution of termination buffer (QuickScout Screening assist MSA; Carna Biosciences) (60 μL) was added to each well. The entire reaction mixture was then applied to a LabChip3000 system (Caliper Life Science) and the product and substrate peptide peaks were separated and quantified.
# [2] = target: CDK2/CycA2 (Homo sapiens, UniProt P24941)
# Method: as §1, §2, §3
# (§4) The assay utilized was identical to that of the single point inhibitory activity determination (MSA) but run in dose response. […] A solution of termination buffer (QuickScout Screening assist MSA; Carna Biosciences) (60 μL) was added to each well. The entire reaction mixture was then applied to a LabChip3000 system (Caliper Life Science) and the product and substrate peptide peaks were separated and quantified.
# [3] = target: PAK5 (Homo sapiens, UniProt Q9P286)
# Method: as §1, §2, §3
# [4] = target: BRAF(V600E)_Cascade (Homo sapiens, UniProt P15056, V600E)
# Method: as §1, §2, §3
# [5] = target: EPHB2 (Homo sapiens, UniProt P29323)
# Method: as §1, §2, §3, §4
# [6] = target: TRKC (Homo sapiens, UniProt Q16288)
# Method: as §1, §2, §3, §4
# [7] = target: AurA (Homo sapiens, UniProt O14965)
# Method: as §1, §3
# (§5) The assay utilized was identical to that of the single point inhibitory activity determination (MSA) but run in dose response.
# [8] = target: MAP3K3_Cascade (Homo sapiens, UniProt Q99759)
# Method: as §1, §3, §5
# [9] = target: TAK1-TAB1_Cascade (Homo sapiens, UniProt O43318)
# Method: as §1, §2, §3, §4
# [10] = target: LCK (Homo sapiens, UniProt P06239)
# Method: as §1, §2, §3, §4
# [11] = target: TYRO3 (Homo sapiens, UniProt Q06418)
# Method: as §1, §2, §3
# [12] = target: NEK9 (Homo sapiens, UniProt Q8TD19)
# Method: as §1, §2, §3, §4
# [13] = target: FYN (Homo sapiens, UniProt P06241)
# Method: as §1, §2, §3, §4
# [14] = target: MLK2_Cascade (Homo sapiens, UniProt Q02779)
# Method: as §1, §2, §3, §4
# [15] = target: MAP3K5_Cascade (Homo sapiens, UniProt Q99683)
# Method: as §1, §2, §3, §4
# [16] = target: FER (Homo sapiens, UniProt P16591)
# Method: as §1, §2, §3
# [17] = target: HIPK2 (Homo sapiens, UniProt Q9H2X6)
# Method: as §1, §2, §3, §4
# [18] = target: NEK7 (Homo sapiens, UniProt Q8TDX7)
# Method: as §1, §2, §3, §4
# [19] = target: MAPKAPK5 (Homo sapiens, UniProt Q8IW41)
# Method: as §1, §2, §3, §4
# [20] = target: MOS_Cascade (Homo sapiens, UniProt P00540)
# Method: as §1, §2, §3, §4
# [21] = target: CK1γ3 (Homo sapiens, UniProt Q9Y6M4)
# Method: as §1, §2, §3, §4
# [22] = target: RET(Y791F) (Homo sapiens, UniProt P07949, Y791F)
# Method: as §1, §2, §3, §4
# [23] = target: FGFR1(V561M) (Homo sapiens, UniProt P11362, V561M)
# Method: as §1, §2, §3, §4
# [24] = target: TSSK2 (Homo sapiens, UniProt Q96PF2)
# Method: as §1, §2, §3
# [25] = target: JNK3 (Homo sapiens, UniProt P53779)
# Method: as §1, §2, §3
# [26] = target: BLK (Homo sapiens, UniProt P51451)
# Method: as §1, §2, §3, §4
# [27] = target: MRCKα (Homo sapiens, UniProt Q5VT25)
# Method: as §1, §2, §3, §4
# [28] = target: CaMK2δ (Homo sapiens, UniProt Q13557)
# Method: as §1, §2, §3, §4
# [29] = target: NDR1 (Homo sapiens, UniProt Q15208)
# Method: as §1, §2, §3, §4
# [30] = target: EPHA7 (Homo sapiens, UniProt Q15375)
# Method: as §1, §2, §3, §4
# [31] = target: RET(G691S) (Homo sapiens, UniProt P07949, G691S)
# Method: as §1, §2, §3
# [32] = target: ROCK2 (Homo sapiens, UniProt O75116)
# Method: as §1, §2, §3
# [33] = target: CK2α1/β (Homo sapiens, UniProt P68400)
# Method: as §1, §2, §3, §4
# [34] = target: CaMK4 (Homo sapiens, UniProt Q16566)
# Method: as §1, §2, §3, §4
# [35] = target: PKCγ (Homo sapiens, UniProt P05129)
# Method: as §1, §2, §3, §4
# [36] = target: p38α (Homo sapiens, UniProt Q16539)
# Method: as §1, §2, §3, §4
# [37] = target: TSSK1 (Homo sapiens, UniProt Q9BXA7)
# Method: as §1, §2, §3, §4
# [38] = target: EPHB1 (Homo sapiens, UniProt P54762)
# Method: as §1, §2, §3, §4
# [39] = target: CK1γ2 (Homo sapiens, UniProt P78368)
# Method: as §1, §2, §3, §4
# [40] = target: CRIK (Homo sapiens, UniProt O14578)
# Method: as §1, §2, §3
# Sequence of JNK3 (P53779 whole entry): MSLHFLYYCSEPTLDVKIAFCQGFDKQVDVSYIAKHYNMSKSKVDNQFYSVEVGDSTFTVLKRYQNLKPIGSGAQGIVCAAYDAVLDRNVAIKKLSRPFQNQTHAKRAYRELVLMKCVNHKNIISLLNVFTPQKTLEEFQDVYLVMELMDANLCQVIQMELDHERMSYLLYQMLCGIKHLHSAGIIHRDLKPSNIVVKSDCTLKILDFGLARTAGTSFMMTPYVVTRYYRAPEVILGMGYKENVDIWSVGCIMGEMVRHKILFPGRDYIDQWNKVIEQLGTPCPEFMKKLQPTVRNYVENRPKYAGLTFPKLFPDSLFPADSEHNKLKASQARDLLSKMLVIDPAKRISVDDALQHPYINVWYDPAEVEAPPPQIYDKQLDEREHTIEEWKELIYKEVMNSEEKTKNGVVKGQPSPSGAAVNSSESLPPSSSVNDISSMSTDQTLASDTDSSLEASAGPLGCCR
# Sequence of RET(G691S) (P07949 29-1114 G691S): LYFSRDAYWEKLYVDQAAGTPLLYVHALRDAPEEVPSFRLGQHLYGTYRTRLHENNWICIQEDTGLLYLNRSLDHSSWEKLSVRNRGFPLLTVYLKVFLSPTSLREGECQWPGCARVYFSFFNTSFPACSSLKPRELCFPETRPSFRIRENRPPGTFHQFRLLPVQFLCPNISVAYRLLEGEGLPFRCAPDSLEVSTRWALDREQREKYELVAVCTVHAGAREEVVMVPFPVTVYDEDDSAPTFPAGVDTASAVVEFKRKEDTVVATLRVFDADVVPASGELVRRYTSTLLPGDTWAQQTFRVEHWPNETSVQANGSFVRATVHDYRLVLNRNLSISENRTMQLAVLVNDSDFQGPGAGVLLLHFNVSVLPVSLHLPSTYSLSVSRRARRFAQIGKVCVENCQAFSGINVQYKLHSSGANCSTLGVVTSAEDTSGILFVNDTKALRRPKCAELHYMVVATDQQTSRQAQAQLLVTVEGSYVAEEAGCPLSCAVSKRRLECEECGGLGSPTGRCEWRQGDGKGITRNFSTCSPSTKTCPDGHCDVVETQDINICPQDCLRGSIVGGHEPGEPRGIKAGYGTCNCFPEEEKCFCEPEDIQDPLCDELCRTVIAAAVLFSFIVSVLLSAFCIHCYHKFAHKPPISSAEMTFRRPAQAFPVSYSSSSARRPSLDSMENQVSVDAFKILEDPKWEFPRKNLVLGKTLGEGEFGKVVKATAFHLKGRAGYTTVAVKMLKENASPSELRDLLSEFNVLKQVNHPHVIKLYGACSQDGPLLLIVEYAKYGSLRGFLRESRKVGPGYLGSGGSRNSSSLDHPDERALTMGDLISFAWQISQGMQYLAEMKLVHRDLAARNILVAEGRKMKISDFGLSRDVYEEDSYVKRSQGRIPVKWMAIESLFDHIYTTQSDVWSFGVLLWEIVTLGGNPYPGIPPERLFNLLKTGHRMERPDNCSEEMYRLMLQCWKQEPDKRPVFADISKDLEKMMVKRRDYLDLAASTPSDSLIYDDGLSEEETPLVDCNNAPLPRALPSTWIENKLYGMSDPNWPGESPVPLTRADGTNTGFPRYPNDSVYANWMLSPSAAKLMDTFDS
# Sequence of RET(Y791F) (P07949 29-1114 Y791F): as the sequence (P07949 29-1114 G691S) above, with S663G, Y763F counted along it
# Sequence of HIPK2 (Q9H2X6 whole entry): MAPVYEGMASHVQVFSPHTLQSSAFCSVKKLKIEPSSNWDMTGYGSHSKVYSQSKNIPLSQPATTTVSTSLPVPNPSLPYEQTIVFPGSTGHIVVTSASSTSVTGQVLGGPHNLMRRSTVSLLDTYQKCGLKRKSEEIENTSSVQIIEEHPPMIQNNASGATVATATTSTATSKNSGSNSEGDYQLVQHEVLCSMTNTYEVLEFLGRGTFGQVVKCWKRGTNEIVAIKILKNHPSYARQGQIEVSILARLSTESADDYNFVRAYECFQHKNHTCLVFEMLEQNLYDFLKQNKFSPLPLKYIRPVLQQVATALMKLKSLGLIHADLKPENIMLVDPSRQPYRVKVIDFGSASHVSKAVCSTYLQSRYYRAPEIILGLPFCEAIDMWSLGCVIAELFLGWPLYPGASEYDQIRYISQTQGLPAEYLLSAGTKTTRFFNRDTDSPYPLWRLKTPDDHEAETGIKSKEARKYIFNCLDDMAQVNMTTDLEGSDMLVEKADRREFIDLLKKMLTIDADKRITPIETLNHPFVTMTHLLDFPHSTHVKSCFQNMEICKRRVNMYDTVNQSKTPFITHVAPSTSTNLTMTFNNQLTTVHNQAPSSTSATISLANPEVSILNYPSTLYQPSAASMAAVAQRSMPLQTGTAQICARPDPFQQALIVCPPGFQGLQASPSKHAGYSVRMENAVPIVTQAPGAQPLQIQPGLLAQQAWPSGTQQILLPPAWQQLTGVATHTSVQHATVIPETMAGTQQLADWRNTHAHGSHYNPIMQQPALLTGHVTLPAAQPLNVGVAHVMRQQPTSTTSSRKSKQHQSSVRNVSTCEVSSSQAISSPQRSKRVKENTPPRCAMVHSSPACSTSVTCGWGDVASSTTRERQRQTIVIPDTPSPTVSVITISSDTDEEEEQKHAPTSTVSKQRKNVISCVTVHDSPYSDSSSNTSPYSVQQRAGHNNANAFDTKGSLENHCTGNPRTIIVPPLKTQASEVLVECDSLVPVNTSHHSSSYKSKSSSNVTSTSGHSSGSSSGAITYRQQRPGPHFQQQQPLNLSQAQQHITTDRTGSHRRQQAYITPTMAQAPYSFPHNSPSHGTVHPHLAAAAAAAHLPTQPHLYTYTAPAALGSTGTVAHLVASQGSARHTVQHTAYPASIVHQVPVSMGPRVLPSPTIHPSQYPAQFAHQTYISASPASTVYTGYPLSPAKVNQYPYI
# Sequence of MLK2_Cascade (Q02779 whole entry): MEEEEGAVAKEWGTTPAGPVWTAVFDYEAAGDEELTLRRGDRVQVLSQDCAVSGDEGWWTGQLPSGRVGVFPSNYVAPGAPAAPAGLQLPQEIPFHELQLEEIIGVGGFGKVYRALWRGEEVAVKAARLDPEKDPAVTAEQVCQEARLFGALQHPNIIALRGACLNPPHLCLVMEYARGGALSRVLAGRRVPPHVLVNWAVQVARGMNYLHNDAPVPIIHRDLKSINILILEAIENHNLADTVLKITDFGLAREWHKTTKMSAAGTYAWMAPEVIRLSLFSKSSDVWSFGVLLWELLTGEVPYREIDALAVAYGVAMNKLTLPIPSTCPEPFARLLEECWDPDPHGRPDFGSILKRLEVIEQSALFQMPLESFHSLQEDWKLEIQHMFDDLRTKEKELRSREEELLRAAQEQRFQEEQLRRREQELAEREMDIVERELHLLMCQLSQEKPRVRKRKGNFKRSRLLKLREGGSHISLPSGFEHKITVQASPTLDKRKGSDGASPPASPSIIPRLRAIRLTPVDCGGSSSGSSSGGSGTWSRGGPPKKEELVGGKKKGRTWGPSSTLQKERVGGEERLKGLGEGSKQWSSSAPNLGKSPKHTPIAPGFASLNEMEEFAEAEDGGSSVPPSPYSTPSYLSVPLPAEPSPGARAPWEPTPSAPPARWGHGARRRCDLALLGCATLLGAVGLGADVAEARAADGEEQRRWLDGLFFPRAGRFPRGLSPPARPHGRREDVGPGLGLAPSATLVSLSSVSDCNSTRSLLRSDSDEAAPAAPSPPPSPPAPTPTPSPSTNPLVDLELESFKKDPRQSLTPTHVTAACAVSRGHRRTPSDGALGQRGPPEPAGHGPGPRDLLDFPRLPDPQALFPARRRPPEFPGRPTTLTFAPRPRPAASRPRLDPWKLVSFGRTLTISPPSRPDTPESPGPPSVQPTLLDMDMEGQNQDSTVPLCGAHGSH
# Sequence of EPHA7 (Q15375 28-998): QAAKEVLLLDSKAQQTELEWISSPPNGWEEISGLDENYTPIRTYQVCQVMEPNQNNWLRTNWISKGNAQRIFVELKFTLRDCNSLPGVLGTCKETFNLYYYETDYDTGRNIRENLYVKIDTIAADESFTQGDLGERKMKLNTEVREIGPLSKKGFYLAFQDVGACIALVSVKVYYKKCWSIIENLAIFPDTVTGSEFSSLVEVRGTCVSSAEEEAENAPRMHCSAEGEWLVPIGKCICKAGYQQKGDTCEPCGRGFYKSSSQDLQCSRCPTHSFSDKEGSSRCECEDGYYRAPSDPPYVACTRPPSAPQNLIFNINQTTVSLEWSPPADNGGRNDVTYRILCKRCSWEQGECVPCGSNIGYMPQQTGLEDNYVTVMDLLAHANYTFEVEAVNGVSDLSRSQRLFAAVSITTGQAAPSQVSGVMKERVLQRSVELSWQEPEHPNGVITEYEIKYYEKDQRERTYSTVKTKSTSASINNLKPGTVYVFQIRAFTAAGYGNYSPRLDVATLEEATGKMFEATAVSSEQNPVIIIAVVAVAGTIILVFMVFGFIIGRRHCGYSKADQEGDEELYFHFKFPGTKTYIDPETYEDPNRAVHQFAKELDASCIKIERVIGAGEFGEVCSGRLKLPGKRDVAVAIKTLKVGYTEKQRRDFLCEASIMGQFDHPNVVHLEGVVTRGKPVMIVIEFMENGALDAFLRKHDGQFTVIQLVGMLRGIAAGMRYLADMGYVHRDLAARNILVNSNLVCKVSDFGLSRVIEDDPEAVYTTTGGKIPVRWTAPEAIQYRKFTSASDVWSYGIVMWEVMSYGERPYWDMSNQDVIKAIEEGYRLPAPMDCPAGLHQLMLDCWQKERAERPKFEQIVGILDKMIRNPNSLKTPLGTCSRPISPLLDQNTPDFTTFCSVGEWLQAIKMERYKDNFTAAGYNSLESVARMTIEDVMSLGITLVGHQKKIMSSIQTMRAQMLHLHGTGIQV
# Sequence of TSSK1 (Q9BXA7 whole entry): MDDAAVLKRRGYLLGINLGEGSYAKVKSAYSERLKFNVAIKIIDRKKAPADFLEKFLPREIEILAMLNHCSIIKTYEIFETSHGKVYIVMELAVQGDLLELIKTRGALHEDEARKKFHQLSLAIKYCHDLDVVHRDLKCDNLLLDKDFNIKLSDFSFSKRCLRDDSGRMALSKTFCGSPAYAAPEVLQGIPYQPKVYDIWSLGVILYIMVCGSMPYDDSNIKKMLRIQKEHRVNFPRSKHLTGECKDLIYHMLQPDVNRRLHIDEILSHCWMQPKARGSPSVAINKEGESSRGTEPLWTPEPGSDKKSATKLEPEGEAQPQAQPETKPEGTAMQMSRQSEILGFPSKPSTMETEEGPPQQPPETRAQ
smiles,measurement,setting,value
CC[C@@]1(c2ccccc2)C2=C(CC(C)(C)CC2=O)Nc2n[nH]cc21 [BRD0705],% Inhibition at 10 μM,[1],−12.3%
same,% Inhibition at 10 μM,[2]; CDK2/CycA2,65.3%
same,IC50,[2]; read-out: IC50 CDK2/CycA2,6.87 µM
same,% Inhibition at 10 μM,[3],9.3%
same,% Inhibition at 10 μM,[4],7.0%
same,% Inhibition at 10 μM,[5],6.5%
same,% Inhibition at 10 μM,[6],6.4%
same,% Inhibition at 10 μM,[7],6.1%
same,% Inhibition at 10 μM,[8],5.6%
same,% Inhibition at 10 μM,[9],5.0%
same,% Inhibition at 10 μM,[10],5.0%
same,% Inhibition at 10 μM,[11],3.8%
same,% Inhibition at 10 μM,[12],3.5%
same,% Inhibition at 10 μM,[13],3.1%
same,% Inhibition at 10 μM,[14],2.1%
same,% Inhibition at 10 μM,[15],1.9%
same,% Inhibition at 10 μM,[16],1.7%
same,% Inhibition at 10 μM,[17],−0.5%
same,% Inhibition at 10 μM,[18],−1.0%
same,% Inhibition at 10 μM,[19],−1.0%
same,% Inhibition at 10 μM,[20],−1.0%
same,% Inhibition at 10 μM,[21],−2.1%
same,% Inhibition at 10 μM,[22],−2.2%
same,% Inhibition at 10 μM,[23],−3.2%
same,% Inhibition at 10 μM,[24],−3.4%
same,% Inhibition at 10 μM,[25],−3.4%
same,% Inhibition at 10 μM,[26],−3.4%
same,% Inhibition at 10 μM,[27],−3.8%
same,% Inhibition at 10 μM,[28],−4.4%
same,% Inhibition at 10 μM,[29],−4.8%
same,% Inhibition at 10 μM,[30],−5.3%
same,% Inhibition at 10 μM,[31],−5.6%
same,% Inhibition at 10 μM,[32],−5.8%
same,% Inhibition at 10 μM,[33],−6.0%
same,% Inhibition at 10 μM,[34],−7.1%
same,% Inhibition at 10 μM,[35],−8.0%
same,% Inhibition at 10 μM,[36],−8.5%
same,% Inhibition at 10 μM,[37],−8.5%
same,% Inhibition at 10 μM,[38],−9.9%
same,% Inhibition at 10 μM,[39],−11.8%
same,% Inhibition at 10 μM,[40],−15.2%
CC(C)(C)Cc1[nH]nc2c1[C@](C)(c1ccccc1)C1=C(CC(C)(C)CC1=O)N2 [BRD3731],% Inhibition 10 μM,[1]; 10 μM,−0.7%
same,IC50,[2]; CDK2/CycA2,> 10 µM
same,% Inhibition 10 μM,"[2]; CDK2/CycA2, 10 μM",36.3%
same,Fold Selectivity,[2]; IC50 CDK2/CycA2 / IC50 GSK3β,>370 fold
same,% Inhibition 10 μM,[3]; 10 μM,6.5%
same,% Inhibition 10 μM,[4]; 10 μM,−5.2%
same,% Inhibition 10 μM,[5]; 10 μM,6.4%
same,% Inhibition 10 μM,[6]; 10 μM,12.1%
same,% Inhibition 10 μM,[7]; 10 μM,15.4%
same,% Inhibition 10 μM,[8]; 10 μM,1.8%
same,% Inhibition 10 μM,[9]; 10 μM,1.7%
same,% Inhibition 10 μM,[10]; 10 μM,9.2%
same,% Inhibition 10 μM,[11]; 10 μM,−3.5%
same,% Inhibition 10 μM,[12]; 10 μM,2.9%
same,% Inhibition 10 μM,[13]; 10 μM,−1.3%
same,% Inhibition 10 μM,[14]; 10 μM,0.3%
same,% Inhibition 10 μM,[15]; 10 μM,0.4%
same,% Inhibition 10 μM,[16]; 10 μM,6.4%
same,% Inhibition 10 μM,[17]; 10 μM,3.2%
same,% Inhibition 10 μM,[18]; 10 μM,−3.2%
same,% Inhibition 10 μM,[19]; 10 μM,6.1%
same,% Inhibition 10 μM,[20]; 10 μM,−9.5%
same,% Inhibition 10 μM,[21]; 10 μM,−2.1%
same,% Inhibition 10 μM,[22]; 10 μM,9.5%
same,% Inhibition 10 μM,[23]; 10 μM,0.3%
same,% Inhibition 10 μM,[24]; 10 μM,3.8%
same,% Inhibition 10 μM,[25]; 10 μM,−2.6%
same,% Inhibition 10 μM,[26]; 10 μM,4.9%
same,% Inhibition 10 μM,[27]; 10 μM,4.3%
same,% Inhibition 10 μM,[28]; 10 μM,−0.3%
same,% Inhibition 10 μM,[29]; 10 μM,−3.7%
same,% Inhibition 10 μM,[30]; 10 μM,−3.0%
same,% Inhibition 10 μM,[31]; 10 μM,−2.3%
same,% Inhibition 10 μM,[32]; 10 μM,−0.5%
same,% Inhibition 10 μM,[33]; 10 μM,−2.1%
same,% Inhibition 10 μM,[34]; 10 μM,12.4%
same,% Inhibition 10 μM,[35]; 10 μM,5.0%
same,% Inhibition 10 μM,[36]; 10 μM,0.9%
same,% Inhibition 10 μM,[37]; 10 μM,−0.8%
same,% Inhibition 10 μM,[38]; 10 μM,2.7%
same,% Inhibition 10 μM,[39]; 10 μM,3.6%
same,% Inhibition 10 μM,[40]; 10 μM,−0.7%
